Molecules are shown by their SMILES. Active and inactive are the calls of the source. No cut-off for these calls is given here.

Assay [1] relates to MCF7. The assay is described as follows: Cytotoxicity against human MCF7 cells assessed as growth inhibition after 72 hrs by MTS/PMS assay. In kind it is functional, cell-based. The note with it: MCF7, 72 h.
The target of assay [2] is T1, Heat shock protein HSP90 (Homo sapiens) (UniProt P07900+P08238). As to the kind of experiment: Inhibition of HSP90 in human MCF7 cells assessed as pAkt degradation after 24 hrs by Western blot analysis. In kind it is cell-based.
Assay [3] addresses T1, Heat shock protein HSP90 (Homo sapiens). The assay is described as follows: Inhibition of HSP90 in human MCF7 cells assessed as Her2 degradation after 24 hrs by Western blot analysis. In kind it is cell-based. (In general: Immunoblotting shows a protein as a band on a membrane.)
For assay [4] the target is unchanged. As to the kind of experiment: Inhibition of HSP90 in human MCF7 cells assessed as Cdk6 degradation after 24 hrs by Western blot analysis. In kind it is cell-based.
For assay [5] the target is unchanged. The assay is described as follows: Inhibition of HSP90 in human MCF7 cells assessed as Raf degradation after 24 hrs by Western blot analysis. It is filed as cell-based.
Assay [6] has as its system MCF7. The assay is described as follows: Change in Cdc37 expression in human MCF7 cells at 0.01 to 10 uM after 24 hrs by Western blot analysis. It is filed as functional, cell-based.
For assay [7], the system named is MCF7. The assay is described as follows: Change in p23 expression in human MCF7 cells at 0.01 to 10 uM after 24 hrs by Western blot analysis. It is filed as functional, cell-based.
Assay [8] has as its target T1, Heat shock protein HSP90 (Homo sapiens). The assay is described as follows: Inhibition of HSP90 in human MCF7 cells assessed as disruption of interaction with Cdc37 at 0.5 times to 5 times IC50 after 24 hrs by co-immunoprecipitation assay. In kind it is cell-based.
Assay [9] has the same target. As to the kind of experiment: Inhibition of HSP90 in human MCF7 cells assessed as disruption of interaction with p23 at 0.5 times to 5 times IC50 after 24 hrs by co-immunoprecipitation assay. In kind it is cell-based.
Assay [10] shares this target. As to the kind of experiment: Inhibition of HSP90 in human MCF7 cells assessed as induction of heat shock response-mediated HSP27 production at 5 times to 10 times IC50 after 24 hrs by Western blot analysis relative to vehicle-treated control. It is filed as cell-based.
Assay [11] shares this target. The assay is described as follows: Inhibition of HSP90 in human MCF7 cells assessed as pAkt degradation at 0.5 times to 5 times IC50 after 24 hrs by Western blot analysis. In kind it is cell-based.
Assay [12] has the same target. The assay is described as follows: Inhibition of HSP90 in human MCF7 cells assessed as Her2 degradation at 0.5 times to 5 times IC50 after 24 hrs by Western blot analysis. In kind it is cell-based.
Assay [13] has the same target. As to the kind of experiment: Inhibition of HSP90 in human MCF7 cells assessed as Cdk6 degradation at 0.5 times to 5 times IC50 after 24 hrs by Western blot analysis. It is filed as cell-based.
For assay [14] the target is unchanged. The assay is described as follows: Inhibition of HSP90 in human MCF7 cells assessed as Raf degradation at 0.5 times to 5 times IC50 after 24 hrs by Western blot analysis. It is filed as cell-based.
Assay [15] shares this target. As to the kind of experiment: Inhibition of HSP90 in human MCF7 cells assessed as induction of heat shock response-mediated HSP90 production at 0.5 times to 5 times IC50 after 24 hrs by Western blot analysis. In kind it is cell-based.
Assay [16] has the same target. As to the kind of experiment: Inhibition of HSP90 in human MCF7 cells assessed as induction of heat shock response-mediated HSP70 production at 0.5 times to 5 times IC50 after 24 hrs by Western blot analysis. In kind it is cell-based.
For assay [17] the target is unchanged. The assay is described as follows: Inhibition of HSP90 in human MCF7 cells assessed as induction of heat shock response-mediated HSP27 production at 0.5 times to 5 times IC50 after 24 hrs by Western blot analysis. It is filed as cell-based.
Assay [18] concerns MCF7. The assay is described as follows: Change in Cdc37 expression in human MCF7 cells at 5 times IC50 after 24 hrs by Western blot analysis. In kind it is functional, cell-based.
For assay [19], the system named is MCF7. The assay is described as follows: Change in p23 expression in human MCF7 cells at 5 times IC50 after 24 hrs by Western blot analysis. It is filed as functional, cell-based.
The target in assay [20] is T2, Prostaglandin E synthase 3 (Homo sapiens) (UniProt Q15185).
T2 sequence (whole entry): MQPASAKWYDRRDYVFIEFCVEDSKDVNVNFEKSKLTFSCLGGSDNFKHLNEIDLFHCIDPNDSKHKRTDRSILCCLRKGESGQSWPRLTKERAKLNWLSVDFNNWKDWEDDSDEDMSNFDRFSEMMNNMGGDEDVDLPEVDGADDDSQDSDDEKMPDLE
The assay is described as follows: Binding affinity to p23 in human MCF7 cells assessed as inhibition of interaction with HSP90 at 5 times IC50 after 24 hrs by co-immunoprecipitation assay. In kind it is cell-based.

For `CC(C)(O)/C=C/C(=O)[C@](C)(O)[C@H]1[C@H](O)C[C@@]2(C)[C@@H]3CC=C4[C@@H](CC(=O)[C@H](O)C4(C)C)[C@]3(C)C(=O)C[C@]12C`, the IC50 in the assay on MCF7 [1] (read-out: IC50) was 718 nM. The inhibition result in assay [2], in [3], in [4] and in [5] was “Dose-dependent effect” each time. Moreover, the outcome with MCF7 [6] and in the assay with MCF7 [7] was inactive. The inhibition result in assay [8] and in [9] was “inactive” each time. Also, the inhibition result in [10] is “Active”.
As to `CC(C)(O)CCC(=O)[C@@](C)(O)[C@H]1[C@H](O)C[C@@]2(C)[C@@H]3CC=C4[C@@H](C[C@H](O)C(=O)C4(C)C)[C@]3(C)C(=O)C[C@]12C`, the IC50 with MCF7 [1] (read-out: IC50) came to 5130 nM. The inhibition result in assay [11], in assay [12], in assay [13], in assay [14], in assay [15] and in assay [16] was “inactive” throughout. Besides, in [17], the inhibition result is “inactive”.
As to `CC(=O)OC(C)(C)CCC(=O)[C@](C)(O)[C@H]1[C@H](O)C[C@@]2(C)[C@@H]3CC=C4[C@@H](C[C@H](O)C(=O)C4(C)C)[C@]3(C)C(=O)C[C@]12C` [23,24-DIHYDROCUCURBITACIN B], the IC50 in the assay on MCF7 [1] (read-out: IC50) amounted to 46300 nM. Moreover, the inhibition result in assay [11], in [12], in [13], in assay [14], in assay [15] and in [16] was “inactive” in each case. Besides, in assay [17], the inhibition result is “inactive”.
On to `CC1=C(O)C(=O)C=C2C1=CC=C1[C@@]2(C)CC[C@@]2(C)[C@@H]3C[C@](C)(C(=O)O)CC[C@]3(C)CC[C@]12C` [CELASTROL], for which, in the assay on MCF7 [1] (read-out: IC50), the IC50 came to 153 nM. Also, the result in the assay on MCF7 [18] and with MCF7 [19] was Active.
Take `CC(=O)OC(C)(C)/C=C/C(=O)[C@](C)(O)[C@H]1[C@H](O)C[C@@]2(C)[C@@H]3CC=C4[C@H](C[C@H](O)C(=O)C4(C)C)[C@]3(C)C(=O)C[C@]12C` [CUCURBITACIN B]: the IC50 in the assay on MCF7 [1] (read-out: IC50) worked out at 41.3 nM. Further, the inhibition result in assay [11], in [12], in [13], in assay [14], in [15] and in assay [16] was “inactive” each time. The inhibition result in assay [17] is “inactive”.
Take `CC(C)(O)/C=C/C(=O)[C@](C)(O)[C@H]1[C@H](O)C[C@@]2(C)[C@@H]3CC=C4[C@@H](C[C@H](O)C(=O)C4(C)C)[C@]3(C)C(=O)C[C@]12C` [CUCURBITACIN D]: in the assay on MCF7 [1] (read-out: IC50), the IC50 was found to be 598 nM. The inhibition result in [2], in assay [3], in [4] and in assay [5] was “Dose-dependent effect” throughout. The outcome with MCF7 [6] and in the assay with MCF7 [7] was inactive. Besides, in assay [10], the inhibition entry was “inactive”.
Take `CC(=O)OC(C)(C)/C=C/C(=O)[C@](C)(O)[C@H]1[C@H](O)C[C@@]2(C)[C@@H]3CC=C4[C@@H](C=C(O)C(=O)C4(C)C)[C@]3(C)C(=O)C[C@]12C` [CUCURBITACIN E]: the IC50 with MCF7 [1] is 55 nM. For the same compound, the inhibition entry in assay [11], in [12], in assay [13], in assay [14], in [15] and in assay [16] was “inactive” in each case. In addition, the inhibition entry in assay [17] is “inactive”.
Regarding `CC(C)(O)/C=C/C(=O)[C@](C)(O)[C@H]1[C@H](O)C[C@@]2(C)[C@@H]3CC=C4[C@@H](C=C(O)C(=O)C4(C)C)[C@]3(C)C(=O)C[C@]12C` [CUCURBITACIN I], the IC50 in the assay with MCF7 [1] (read-out: IC50) was 60.7 nM. The inhibition entry in assay [11], in assay [12], in assay [13], in assay [14], in [15] and in assay [16] was “inactive” each time. Besides, in [17], the inhibition entry was “inactive”.
`CC(=O)O[C@@H]1C[C@H]2C(C)(C)C(=O)C=C[C@]2(C)[C@H]2CC[C@@]3(C)[C@H](c4ccoc4)OC(=O)[C@H]4O[C@]43[C@@]21C` [GEDUNIN]: the IC50 in the assay on MCF7 [1] (read-out: IC50) came out at 10900 nM. The outcome in the assay with MCF7 [18] and in the assay with MCF7 [19] was Active. Also, the inhibition entry in assay [10] was “inactive”. Moreover, in assay [20], the inhibition entry was “Active”.
`COC1=C2C[C@@H](C)C[C@H](OC)[C@H](O)[C@@H](C)/C=C(\C)[C@H](OC(N)=O)[C@@H](OC)/C=C\C=C(/C)C(=O)NC(=CC1=O)C2=O` [GELDANAMYCIN]: the IC50 in the assay on MCF7 [1] (read-out: IC50) worked out at 42.7 nM. In addition, the result in the assay on MCF7 [18] and in the assay with MCF7 [19] was Active.

For orientation: IC50 means the concentration that gives 50% inhibition.

These data come from ChEMBL document CHEMBL3576813, “Cucurbitacin D Is a Disruptor of the HSP90 Chaperone Machinery” (J Nat Prod, 2015).
